Experiments:
[1] = tested on: apoE−/− mice; test: Murine atherosclerosis model (apoE−/− mice on atherogenic diet), aortic lesions; type: in vivo; settings: 300 nmol/kg daily s.c. for 8 weeks
Description: Experiments were performed in male apoE−/− mice fed an atherogenic diet (D12108, cholate-free AIN-76A semi-purified diet, Research Diets Inc., New Brunswick, NJ) from 4 weeks of age. MPE-298 (300 nmol/kg), MPE-267 (300 nmol/kg) or vehicle (0.9% NaCl), were administered by daily by subcutaneous (s.c.) injections for 8 weeks, from 12 weeks of age, as shown schematically in FIG. 8A.

[2] = tested on: R-FSL-1-induced IL-1β and TNF-α secretion in bone marrow-derived macrophages; test: IL-1β and TNF-α secretion in bone marrow-derived macrophages (BMDM) stimulated with R-FSL-1; type: cell-based, mice; settings: murine BMDM primed with LPS, 10^−6 to 10^−11 M
Excerpt: Bone marrow-derived macrophages isolation and purification. Bone marrow-derived macrophages (BMDM) were isolated from the tibia and femur of 4-month-old C57Bl/6 mice. Mice were euthanized in a CO2 chamber individually. Tibia and femur were dissected from dead mice after removing the skin and the muscles and stored in cold DMEM before use. The bones are placed in Petri dishes containing sterile PBS and immersed in ice. In a laminar flow of culture, bones are immersed in 70% ethanol for one minute, and then rinsed in sterile PBS. Bones were cut in 2 pieces using sterile forceps and scissors and put in pierced 0.6 mL tubes which were put in 2 mL centrifuge tubes containing 200 μL of DMEM. After 1 min of centrifugation at 6500 RPM, pellets of bone marrow cells were gently resuspended and pooled in a 50 mL tube. Cells were counted and monocytes were purified from the bone marrow cells using the EasySep™ Mouse Monocyte Isolation Kit (StemCell Technologies, #19861) according to the manufacturer instructions. […] Statistical significance of data was analyzed by analysis of variance (ANOVA) with post-hoc comparisons using Dunnett's test with statistical software package (Graph Pad Prism version 7.0). […]

[3] = molecular target: T1, CD36 (Rattus norvegicus, UniProt Q07969); test: Competition binding of photoactivatable [125I]-Tyr-Bpa-Ala-Hexarelin to CD36 in rat cardiac membranes; settings: competition with [125I]-Tyr-Bpa-Ala-Hexarelin, rat heart membranes; read-out: IC50 (μM), binding affinity for CD36
T1 construct: from tissue; host or cells: Heart (cardiac membranes) of Sprague Dawley rats from Charles River
T1 sequence (Q07969 whole entry): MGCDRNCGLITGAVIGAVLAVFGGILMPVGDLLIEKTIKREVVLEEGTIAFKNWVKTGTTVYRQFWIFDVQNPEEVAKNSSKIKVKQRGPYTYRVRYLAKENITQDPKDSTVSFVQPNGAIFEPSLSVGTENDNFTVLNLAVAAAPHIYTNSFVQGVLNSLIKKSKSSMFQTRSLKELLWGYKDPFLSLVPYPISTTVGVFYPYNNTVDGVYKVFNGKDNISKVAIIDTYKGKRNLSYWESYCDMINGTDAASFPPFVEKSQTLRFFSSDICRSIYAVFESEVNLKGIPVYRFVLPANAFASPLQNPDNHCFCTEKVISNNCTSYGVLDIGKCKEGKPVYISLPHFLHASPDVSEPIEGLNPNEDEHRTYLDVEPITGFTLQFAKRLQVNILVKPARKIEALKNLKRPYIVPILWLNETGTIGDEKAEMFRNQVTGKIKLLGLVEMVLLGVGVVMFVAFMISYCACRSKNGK
Description: Hearts from Sprague Dawley rats (300-325 g) from Charles River were cut into small pieces and homogenized with a Polytron® at low speed, 3×15 sec in buffer A (10 mM NaHCO3, 5 mM NaN3, 10 μM Pefabloc®, 0.1 μM Aprotinin, 1 μM Pepstatin A, 1 μM Leupeptin, pH 7.0) at a concentration of […] of tissue. The homogenate was first centrifuged at 8,700×g for 20 min in a Sorvall® centrifuge and the supernatant was collected on ice. The pellet was resuspended and re-homogenized with a Glass-Teflon® Potter by 5 strokes. This homogenate was recentrifuged at 8,700×g for 10 min and the resulting supernatant was combined with the first collected supernatant. The combined supernatant was centrifuged at 35,000×g for 20 min. The pellet fraction obtained was resuspended in Buffer B (20 mM Tris-maleate, 0.6M KCl, pH 6.8) in a volume corresponding to 20 mL/g of fresh tissue using a glass homogenizer with a Teflon pestle. The resulting suspension was centrifuged again at 35,000×g for 60 min. and the pellet fraction obtained was resuspended in Buffer C (10 mM Tris/HCl buffer pH 7.4) and thoroughly homogenized in a glass with a Teflon® pestle (20 ml/g of fresh tissue). This suspension was submitted to another centrifugation at 35,000×g for 60 min. The collected pellet was resuspended in 50 mM Tris/HCl buffer pH 7.4) containing 2 mM EGTA in a final volume corresponding to 1-2 mL/g of fresh tissue. The membrane preparation obtained was frozen at −80° C. Protein concentration was determined using the bicinchoninic acid (BCA) method, employing BSA as standard.
The reaction was started by adding 3 nmol of H2O2 for 5 min at room temperature. This step was repeated twice with a period of 5 min of incubation for each addition. The reaction was stopped by diluting the mixture with 1 mL of 0.1% TFA. The radioiodinated peptide was purified by HPLC on a reverse-phase Vydac® C18 column with a 60-min linear gradient from 20% to 50% of acetonitrile in 0.1% TFA. The eluted radiolabelled tracer was collected, aliquoted (50×10^6 cpm/fraction) and stored at −80° C.
Binding studies with MPE-298 were done with increasing concentrations from 0.01 to 5 μM of competition ligands. Nonspecific binding was defined as binding not displaced by 50 μM corresponding peptide. All peptide containing solutions were diluted in Buffer B. Buffer A and B were degassed under vacuum, and used in capped tubes in order to minimize lipid peroxidation. Before the incubation period, all tubes were put under a low flow of nitrogen. All material was kept on ice and the binding assay was performed in darkness. After an incubation period of 60 min at 22° C. (vortexing every 15 min), membranes were submitted to irradiation with UV lamps (365 nm) for 15 min at 4° C. After centrifugation at 12,000×g for 15 minutes, the pellets were resuspended in 40 μl of sample buffer (62 mM Tris-HCl, pH 6.8, 2% SDS, 10% glycerol, 15% 2-mercaptoethanol, and 0.05% bromophenol blue), and boiled for 5 min prior to being subjected to electrophoresis. Proteins (50 μg/40 μl) were separated on a 7.5% SDS-PAGE Bio-Rad® Mini-Protean electrophoresis system (150 V for 1 h). The gels resulting from SDS/PAGE were fixed, colored in Coomassie Brilliant Blue R-250, dried, exposed to a storage phosphor intensifying screen (Amersham Biosciences), and analysed using a Typhoon® PhosphorImager (GE Healthcare Life Sciences®). […] The curves were analysed by using software package (Graphpad® prism version 7.0).

## C=CCN1CC#CCN(NC(=O)[C@H](C)N)C(=O)N[C@H](Cc2c[nH]c3ccccc23)C(=O)N[C@@H](C)C(=O)N[C@@H](Cc2c[nH]c3ccccc23)C(=O)N[C@H](Cc2ccccc2)C(=O)N[C@H](C(N)=O)CCCC1 [MPE-298]
[1]
  reduction of aortic lesions relative to 0.9% NaCl (vehicle): 42%
[2]
  secretion of IL-1β induced by R-FSL-1: able to inhibit
  secretion of TNF-α induced by R-FSL-1: able to inhibit
[3]
  IC50: 0.07 µM
